Paper PMC8261488, “Contraceptive progestins with androgenic properties stimulate breast epithelial cell proliferation” (EMBO Molecular Medicine, 2021)

How the values were obtained:
women = women taking androgenic progestins; ref Rossouw et al, 2002; cited from earlier work
Rankl = Rankl transcript levels by RT-PCR in mouse mammary organoids stimulated ex vivo; assay type: cell-based; conditions: for Rankl transcript levels over vehicle-treated control: BalbC females, 6 h of stimulation
Description: (§1) Next, we stimulated mouse mammary organoids derived from several BalbC females with R5020 or different progestins (Fig 1A). […] No significant change in Rankl and Wnt4 transcript levels was detected during the first 2 h (Appendix Fig S1D). By 6 h of R5020 stimulation, Rankl and Wnt4 transcript levels increased 22.4 and 5.8‐fold over the vehicle‐treated control, respectively.
(§2) Animal experiments were performed in accordance with protocol approved by the Service de la Consommation et des Affaires vétérinaires of Canton de Vaud (VD 1865.3, VD 1865.4). NOD. Cg‐Prkdc^scid Il2rg^tm1Wjl/SzJ mice (Charles River), BalbC, and C57Bl6 breeders were purchased from Jackson Laboratories. Mammary glands were isolated from 18‐ to 35‐week‐old mice, lymph nodes removed, minced with surgical blades, and digested in DMEM/F12, 1% penicillin/streptomycin B with collagenase A 0.25 mg/ml (Roche). […] Fat was removed, and pellet containing organoids washed with phosphate‐buffered saline (PBS), resuspended 5 min in 3 ml red cell blood lysis buffer and washed twice with PBS.
(§3) Human breast microstructures and mouse organoids were homogenized in Trizol (Invitrogen). Aqueous phase containing RNA was chloroform extracted and processed with miRNeasy extraction kit (Qiagen). cDNA was synthesized using random p(dN)6 primers (Roche) and MMLV reverse transcriptase (Invitrogen). SYBR Green PCR Core Reagent System (Qiagen) was used for semi‐quantitative real time (RT‐PCR) using the following primers.

Wnt4 = Wnt4 transcript levels by RT-PCR in mouse mammary organoids stimulated ex vivo; assay type: cell-based; conditions: for Wnt4 transcript levels over vehicle-treated control: BalbC females, 6 h of stimulation
Description: as §1, §2, §3

[1] = system: endogenous hormone levels in mice; experiment: Endogenous steroid hormone plasma levels in treated host mice by LC-MS; assay type: in vivo, mouse; conditions: xenografted NSG females with pellets
Text: Next, we assessed whether progesterone and progestins differentially affected endogenous hormone levels in mice. Plasma 17‐β‐estradiol levels were not affected by any of the treatments (Fig 4H). […] Plasma testosterone levels were not altered by any treatment with the exception of DSP, which decreased them (Fig 4H). Thus, prolonged exposures to progestins differentially affect endogenous progesterone plasma levels and DSP decreases testosterone plasma levels in host mice.

HBECs [2] = experiment: MKI67/Ki67 expression in xenografted HBECs; assay type: in vivo, human; conditions: 21 days pellets; for cell proliferation (KI67 and hECAD double+ cells), overall analysis: HBECs from 11 different patients; for cell proliferation (KI67 and hECAD double+ cells): one mammoplasty (M310)
Text: (§4) Next, we sought for a readout of in vivo cell proliferation different from radiance. […] Given that MKI67 expression could replace the luciferase measurements as a readout, we used a modified experimental setup for a second round of experiments. We derived HBECs from viably frozen mammoplasty samples (Appendix Table S3) and engrafted them to different mammary glands of NSG females without viral infection. Four months later, the 24 recipient females, each engrafted with 5 different mammoplasties received pellets containing either vehicle, progesterone, or 1 of 6 progestins for 21 days. At sacrifice, xenografted glands were histologically sectioned and cell proliferation was quantified using co‐IF with anti‐MKI67 and anti‐hECAD antibodies. For one of the mammoplasties, we were able to obtain measurements for all experimental conditions (Fig 5I). […] For the remaining mammoplasties, between 3 and 8 different experimental conditions were successfully quantified (Appendix Table S4). […] CPA (P < 0.0001) decreased proliferation, whereas CMA and DSP had no effect (Fig 5K). As AR signaling increases AR protein levels, we performed co‐IF for AR and hECAD as another means to assess AR signaling activity.
(§5) Tissues were fixed for 2 h at room temperature in 4% paraformaldehyde and paraffin‐embedded. Dewaxed and rehydrated paraffin sections were pretreated in 10 mM Na citrate (pH 6.0) at 95° for 20 min. Blocking was performed with 1% BSA for 60 min. Primary antibodies used were as follows: Ki67 (rabbit α‐Ki67, clone Sp6, Spring Amsbio, dilution 1:200), ER (rabbit α‐ER, clone Sp1, Zytomed RTU), PR (rabbit α‐PR, clone 1E2, Ventana RTU), AR (rabbit α‐AR, clone SP107, Thermo Fisher, diluted 1:200), CK7 (rabbit α‐CK7, clone Sp52, Abcam, diluted 1:500), CK19 (mouse KS19.2 (Z105.6), American Research Products Inc. (diluted 1:50), and mouse α‐ECAD (clone G‐10, sc‐8426, diluted 1:100). For IHC, chromogenic revelation was performed with ChromoMap DAB kit (Roche Diagnostics, Switzerland) and sections were counterstained with Mayer’s hematoxylin. For fluorescence microscopy, nuclei were counterstained with DAPI (Sigma). IHC for ER, PR, and AR was performed on Discovery Ventana ULTRA (44). IHC images were acquired on Leica DM 2000 with Leica DFC450 C camera. IF images were acquired on Zeiss LSM700 confocal microscope. Slides were scanned with Olympus VS120‐L100 slide scanner with 20×/0.75 objective and Pike F505 C Color camera. Images were loaded into QuPath using the BioFormats extension (Bankhead et al, 2017).

AR [3] = experiment: Percentage of AR+ cells in xenografted HBECs by co-IF for AR and hECAD; assay type: in vivo, human; conditions: 21 days pellets, HBECs from 11 different patients
Text: as §4, §5

AR [4] = system: AR; design: method as in earlier work; conditions: various assays, ref Fuhrmann et al, 1995, Muhn et al, Bouchard, 2005, Mishell, 2008, Schneider et al, 2009, Africander et al, 2011, Louw‐du Toit et al, 2017; cited from earlier work
HBECs [5] = experiment: In vivo growth of intraductal HBEC xenografts measured by radiance; conditions: 60 days of treatment, subcutaneous pellets
Description: To compare the effects of progesterone and different progestins on HBECs in vivo, we infected single cell suspensions obtained from fresh reduction mammoplasty specimens with GFP‐luciferase2‐expressing lentiviruses. The infected cell mixture was grafted intraductally to up to 5 glands of as many recipients as possible. The engraftment and growth of the xenografted cells were monitored weekly by in vivo imaging. When radiance reached > 10E07 on average per mammary gland, 60‐day‐release pellets were implanted subcutaneously, usually within 3–10 weeks after cell injection. At sacrifice, blood was collected and plasma levels of the administered compounds as well as endogenous steroid hormones were determined by liquid chromatography‐mass spectrometry (LC‐MS) (Laszlo et al, 2019).
Next, the in vivo growth of HBEC xenografts stimulated with progesterone or different progestins was analyzed. […] In addition, the fold change radiance of treated versus untreated samples at endpoint was calculated (Fig 5A–C).
Mice were anesthetized by intraperitoneal injection with 10 mg/kg xylazine and 90 mg/kg ketamine (Graeub) and injected intraductally with 10 μl cell suspension per gland. Bioluminescence imaging was performed as described (Sflomos et al, 2016). After 3–10 weeks, when bioluminescence from individual glands reached 10^7 total flux (p/s/cm2/sr), animals were assigned to different treatment groups and hormone pellets implanted subcutaneously. Enzalutamide (Selleckchem, Catalog No. S1250) dissolved in 15% DMSO in PEG300 was injected intraperitoneally 3 times/week at 30 mg/kg.
Pellets were prepared by mixing the required amount of part A, MP3745/E81949 and part B, MP3744/E81950 of low consistency silicon elastomer (MED‐4011) and hormone powder to homogeneity. Mix was transferred to a syringe and incubated at 37°C overnight. The silicon‐hormone mass was removed from the syringe and cut to pieces, as described (Duss et al, 2007). The original protocol was adapted for different doses as described below.

[6] = BalbC-derived organoids, 24 h of stimulation

Row | Compound | breast cancer risk (women) | Rankl transcript levels over vehicle-treated control (Rankl) | Rankl transcript induction (Rankl; [6]) | Rankl transcript induction (Rankl; C57Bl/6 mice, 6 h, 20 nM) | Wnt4 transcript levels over vehicle-treated control (Wnt4) | Wnt4 transcript induction (Wnt4; [6]) | Wnt4 transcript induction (Wnt4; C57Bl/6 mice, 6 h, 20 nM) | endogenous progesterone plasma levels (estrous cycle-related variation) [1] | plasma testosterone levels [1] | cell proliferation (KI67 and hECAD double+ cells), overall analysis (HBECs [2]) | cell proliferation (KI67 and hECAD double+ cells) (HBECs [2]) | percentage of AR+ cells (AR index) (AR [3]) | androgenic / anti-androgenic activity (AR [4]) | growth (course of radiance) of engrafted HBECs versus control (HBECs [5]) | relative radiance at endpoint over control (FC) (HBECs [5]) [fold]
1 | CC(=O)O[C@]1(C(C)=O)CC[C@H]2[C@@H]3C[C@H](C)C4=CC(=O)CC[C@]4(C)[C@H]3CC[C@@]21C [MPA] | elevated breast cancer risk |  |  |  |  |  |  |  |  |  |  |  |  |  | 
2 | C[C@]12CCC(=O)C=C1[C@@H]1C[C@@H]1[C@H]1[C@@H]3[C@@H]4C[C@@H]4[C@@]4(CCC(=O)O4)[C@@]3(C)CC[C@@H]12 [DSP, drospirenone] |  | failed to affect Rankl transcript levels at all | no effect | failed to increase Rankl transcript levels | did not alter Wnt4 transcript levels | no effect | did not alter Wnt4 transcript levels | suppressed | decreased | no effect | no effect | decreased | anti‐androgenic activity | failed to affect | 1.4
3 | CC(=O)O[C@]1(C(C)=O)CC[C@H]2[C@@H]3C=C(Cl)C4=CC(=O)CC[C@]4(C)[C@H]3CC[C@@]21C [CMA, chlormadinone acetate] |  | failed to affect Rankl transcript levels at all | no effect | failed to increase Rankl transcript levels | did not alter Wnt4 transcript levels | no effect | did not alter Wnt4 transcript levels | tendency toward higher average level of progesterone |  | no effect | no effect | no effect | anti‐androgenic activity | Neither CMA nor CPA had any effect on the growth | 0.7
4 | CC(=O)O[C@]1(C(C)=O)CC[C@H]2[C@@H]3C=C(Cl)C4=CC(=O)[C@@H]5C[C@@H]5[C@]4(C)[C@H]3CC[C@@]21C [CPA, cyprotherone acetate] |  | failed to affect Rankl transcript levels at all | no effect | failed to increase Rankl transcript levels | did not alter Wnt4 transcript levels | no effect | 2 fold | did not affect |  | decreased | decreased | decreased | anti‐androgenic activity | Neither CMA nor CPA had any effect on the growth | 0.7
